Earlier results as cited in patent publication US20220305127A1, “PYRROLOBENZODIAZEPINE ANTIBODY CONJUGATES” (priority 2017, published 2022).

Details: Phase I clinical evaluation

C=C1C[C@H]2C=Nc3cc(OCCCOc4cc5c(cc4OC)C(=O)N4CC(=C)C[C@H]4C=N5)c(OC)cc3C(=O)N2C1 [SJG-136]
DNA damage in circulating lymphocytes: noted at all doses
adverse effects: vascular leak syndrome, peripheral edema, liver toxicity and fatigue
maximum tolerated dose: 45 μg/m^2
